Experiments:
HCT-116 [1] = assay: Antiproliferative activity against human HCT-116 cells assessed as inhibition of cell growth; format: functional, cell-based
A549 = assay: Antiproliferative activity against human A549 cells assessed as inhibition of cell growth; format: functional, cell-based
MDA-MB-231 = assay: Antiproliferative activity against human MDA-MB-231 cells assessed as inhibition of cell growth; format: functional, cell-based
Tubulin [2] = assay: Inhibition of tubulin polymerization (unknown origin); format: protein-complex assay, Homo sapiens
[3] = molecular target: Signal transducer and activator of transcription 3 (Homo sapiens, UniProt P40763); assay: Inhibition of STAT3 phosphorylation (unknown origin)
Tubulin [4] = assay: Inhibition of tubulin polymerization (unknown origin) by fluorescence-based tubulin polymerization assay; format: protein-complex assay, Homo sapiens
CAPAN-1 = assay: Antiproliferative activity against human CAPAN-1 cells assessed as inhibition of cell growth incubated for 72 hrs by IncuCyte live-cell imaging analysis; format: functional, cell-based; details: CAPAN-1, 72 h
HCT-116 [5] = assay: Antiproliferative activity against human HCT-116 cells assessed as inhibition of cell growth incubated for 72 hrs by IncuCyte live-cell imaging analysis; format: functional, cell-based; details: HCT-116, 72 h
NCI-H460 = assay: Antiproliferative activity against human NCI-H460 cells assessed as inhibition of cell growth incubated for 72 hrs by IncuCyte live-cell imaging analysis; format: functional, cell-based; details: NCI-H460, 72 h
[6] = Antiproliferative activity against human DND41 cells assessed as inhibition of cell growth incubated for 72 hrs by IncuCyte live-cell imaging analysis; format: functional, cell-based; details: DND41, 72 h
HL-60 = assay: Antiproliferative activity against human HL-60 cells assessed as inhibition of cell growth incubated for 72 hrs by IncuCyte live-cell imaging analysis; format: functional, cell-based; details: HL-60, 72 h
K562 = assay: Antiproliferative activity against human K562 cells assessed as inhibition of cell growth incubated for 72 hrs by IncuCyte live-cell imaging analysis; format: functional, cell-based; details: K562, 72 h
Z-138 = assay: Antiproliferative activity against human Z138 cells assessed as inhibition of cell growth incubated for 72 hrs by IncuCyte live-cell imaging analysis; format: functional, cell-based; details: Z-138, 72 h
DU-145 = assay: Cytotoxicity against human DU-145 cells assessed as inhibition of cell growth incubated for 24 hrs by MTT assay; format: functional, cell-based; details: DU-145, 24 h

Sequence of Signal transducer and activator of transcription 3 (P40763 whole entry): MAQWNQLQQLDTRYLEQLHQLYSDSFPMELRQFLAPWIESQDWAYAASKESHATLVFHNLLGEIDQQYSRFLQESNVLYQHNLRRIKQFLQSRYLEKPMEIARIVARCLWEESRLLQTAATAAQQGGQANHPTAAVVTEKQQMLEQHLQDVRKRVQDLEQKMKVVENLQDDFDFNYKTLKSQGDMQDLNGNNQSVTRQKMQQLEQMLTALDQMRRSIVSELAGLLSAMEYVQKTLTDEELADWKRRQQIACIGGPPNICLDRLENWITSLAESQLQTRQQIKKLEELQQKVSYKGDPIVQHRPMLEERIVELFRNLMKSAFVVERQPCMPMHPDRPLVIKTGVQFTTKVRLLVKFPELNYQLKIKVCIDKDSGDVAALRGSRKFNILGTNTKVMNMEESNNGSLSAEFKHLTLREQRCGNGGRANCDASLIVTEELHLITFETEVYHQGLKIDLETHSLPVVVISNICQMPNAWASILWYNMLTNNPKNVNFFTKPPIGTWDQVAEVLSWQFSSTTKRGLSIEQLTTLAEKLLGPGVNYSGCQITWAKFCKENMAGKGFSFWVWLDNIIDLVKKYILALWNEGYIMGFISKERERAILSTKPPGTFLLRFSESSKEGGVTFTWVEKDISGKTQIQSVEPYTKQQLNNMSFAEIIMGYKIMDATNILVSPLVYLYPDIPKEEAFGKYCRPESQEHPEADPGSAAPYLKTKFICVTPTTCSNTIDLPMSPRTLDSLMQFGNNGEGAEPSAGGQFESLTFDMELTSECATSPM

C=CN(c1cccc2ccccc12)S(=O)(=O)c1ccc(OC)cc1
IC50 (HCT-116 [1]): 3.04 µM | IC50 (A549): 1.35 µM | IC50 (MDA-MB-231): 2.85 µM | IC50 (Tubulin [2]): 0.83 µM | IC50 [3]: 6.84 µM

COC(=O)Nc1ccc(C(=O)Nc2ccccc2OC)c(O)c1
IC50 (Tubulin [4]): 3.9 µM | IC50 (CAPAN-1): 1.3 µM | IC50 (HCT-116 [5]): 1.4 µM | IC50 (NCI-H460): 2.8 µM | IC50 [6]: 1.3 µM | IC50 (HL-60): 1.5 µM | IC50 (K562): 1.3 µM | IC50 (Z-138): 1.3 µM

COc1cccc2c1C(=O)c1c(O)c3c(c(O)c1C2=O)C[C@@](O)(C(=O)CO)C[C@@H]3O[C@H]1C[C@H](N)[C@H](O)[C@H](C)O1 [DOXORUBICIN]
IC50 (DU-145): > 30 µM
